Data from patent US20240287172A1, “PROTEIN BINDERS TO IRHOM2 EPITOPES” (SCIRHOM GMBH, priority 2019, published 2024).

Experiments:
[1] = system: PMA-induced release of endogenous IL-6R from human THP-1 monocytic cells; assay: ELISA-based IL-6R release assay, PMA-induced, THP-1 cells; type: cell-based; details: PMA 25 ng/ml, 1 hour, recombinant murine antibodies and IgG at 1 μg/ml, Batimastat at 10 μM
Method: (§1) In brief, on day 1, Nunc black MaxiSorp® 96-well plates (Thermo Fisher Scientific, USA) were coated for 7 hours with 100 μl per well of mouse anti-human IL-6R capture antibody (provided as part of the DuoSet ELISA kit) at 2 μg/ml TBS at room temperature. Capture antibody solution was removed and MaxiSorp® plates were blocked with 300 μl per well of TBS, 1% BSA at room temperature for 1.5 hours. Meanwhile, 40,000 THP-1 (American Type Culture Collection, USA) cells in 80 μl of normal growth medium were seeded in each well of Greiner CELLSTAR V-bottom 96-well plates (Thermo Fisher Scientific, USA) and pre-incubated with 20 μl per well of standard growth medium supplemented with Batimastat (BB94, Abcam, UK) at 50 μM as positive control (for a final concentration of 10 μM in the resulting 100 μl sample volume), mouse IgG antibody (Thermo Fisher Scientific, USA) at 5 μg/ml as isotype control (for a final concentration of 1 μg/ml in the resulting 100 μl sample volume) or antibodies of the invention at 5 μg/ml (for a final concentration of 1 μg/ml in the resulting 100 μl sample volume) at 37° C., 5% CO2 for 30 minutes. […] Using an infinite M1000 (Tecan Group, Switzerland) microplate reader, the fluorescence of each well was collected at an excitation wavelength of 435 nm and an emission wavelength of 555 nm.

[2] = system: LPS-induced release of endogenous TNFα from PBMCs from healthy donors; assay: ELISA-based TNFα release assay, LPS-induced, PBMCs from healthy donors; type: cell-based; details: Homo sapiens, PBMC; LPS 50 ng/ml, 2 hours; recombinant murine antibodies and IgG at 1 μg/ml; Batimastat at 10 μM
Method: as §1, with “coated overnight” for “coated for 7 hours”, “anti-human TNFα” for “anti-human IL-6R”, “at 4” for “at 2”, “at 4° C. On day 2, the capture” for “at room temperature. Capture”, “for 3” for “for 1.5”, “Meanwhile, 20,000 PBMC from healthy donors (STEMCELL Technologies, Canada)” for “Meanwhile, 40,000 THP-1 (American Type Culture Collection, USA)”

CNC(=O)[C@H](Cc1ccccc1)NC(=O)[C@H](CC(C)C)[C@H](CSc1cccs1)C(=O)NO [Batimastat] gave an inhibition at 10 µM [1] of 88.6% and an inhibition at 10 µM [2] of 99.6%.
